Patent US10301264B2, “Compounds useful for treating ocular neovasculan” (The University of Nottingham, priority 2012, dated 2019)
Values after ≈ are worked out from the molar mass of the structure shown. “Also recorded” adds a separate entry of the source. Like-named read-outs stand apart in the source and are kept apart here. Blank lines part the entries; values can stand above or below the compound they belong to.

How the values were obtained:
CNV lesion area = settings: cited from earlier work
SRPK2 = SRPK2 (Homo sapiens, UniProt P78362); experiment: In vitro kinase assay, SRPK2; format: biochemical
Sequence of SRPK2 (P78362 whole entry, species assumed): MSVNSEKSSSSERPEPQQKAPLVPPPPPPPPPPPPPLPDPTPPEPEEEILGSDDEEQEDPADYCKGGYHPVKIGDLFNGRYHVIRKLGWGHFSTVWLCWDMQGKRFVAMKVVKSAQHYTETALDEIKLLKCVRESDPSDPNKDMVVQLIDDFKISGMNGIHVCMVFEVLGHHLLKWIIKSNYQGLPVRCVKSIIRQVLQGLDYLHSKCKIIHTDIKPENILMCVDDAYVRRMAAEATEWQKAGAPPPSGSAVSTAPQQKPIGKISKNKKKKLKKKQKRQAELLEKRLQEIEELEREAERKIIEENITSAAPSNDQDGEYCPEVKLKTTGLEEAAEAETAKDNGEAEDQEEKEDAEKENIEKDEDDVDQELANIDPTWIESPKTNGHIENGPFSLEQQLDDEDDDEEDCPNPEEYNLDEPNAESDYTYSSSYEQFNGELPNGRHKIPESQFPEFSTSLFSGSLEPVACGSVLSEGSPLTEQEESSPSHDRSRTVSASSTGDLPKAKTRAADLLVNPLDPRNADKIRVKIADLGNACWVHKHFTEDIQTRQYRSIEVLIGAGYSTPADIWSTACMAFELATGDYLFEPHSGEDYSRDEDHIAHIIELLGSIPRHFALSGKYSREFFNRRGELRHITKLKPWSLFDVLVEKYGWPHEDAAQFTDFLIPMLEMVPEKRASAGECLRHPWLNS

[1] = test system: SRPK1 expression in ARPE-19 cells; experiment: SRPK1 expression in ARPE-19 cells (western blot); format: cell-based, human; settings: 10 μM, up to six days
VEGF protein expression = experiment: PanVEGF and VEGFxxxb ELISA; format: cell-based, human; settings: FIG. 2C
Protocol: PanVEGF and VEGFxxxb enzyme-linked immunosorbent assay (ELISA).
One μg/ml pan-VEGF capture antibody (Duoset VEGF ELISA DY-293; R&D systems) was incubated overnight at room temperature. The plates were blocked (Superblock; Thermo Scientific) and serial dilutions of recombinant human (rh)VEGF165 or rhVEGF165b standards (ranging from 4 ng/ml to 16.25 pg/ml) were added, incubated alongside sample lysates, typically diluted 1:10. The plate was incubated for one hour at 37° C. with shaking, washed and incubated with 100 μl/well of either biotinylated goat anti-human VEGF (0.1 μg/ml; R & D systems) or mouse anti-human VEGF165b (0.25 μg/ml) for one further hour at 37° C. After washing, 100 μl/well of Horseradish Peroxidase (HRP)-conjugated streptavidin (1:200; R&D Systems) was added, and plates were left at room temperature for 20 minutes.
The plates were washed and colour change induced with substrate A and B (DY-999; R&D Systems) for 20 mins under light protection. The reaction was stopped by addition of 100 μl/well of 1M H2SO4 and the absorbance was read immediately in an ELISA plate reader (Dynex Technologies Opsys MR system plate reader) at 450 nm with a control reading at 570 nm. Revelation Quicklink 4.25 software was also used to calculate a standard curve from mean absorbance values of standards enabling the estimation of VEGF concentration for each sample.

SRPK1 = SRPK1 (Homo sapiens, UniProt Q96SB4); experiment: In vitro kinase assay (Kinase-Glo), SRPK1; format: biochemical
Sequence of SRPK1 (Q96SB4 whole entry, species assumed, canonical isoform): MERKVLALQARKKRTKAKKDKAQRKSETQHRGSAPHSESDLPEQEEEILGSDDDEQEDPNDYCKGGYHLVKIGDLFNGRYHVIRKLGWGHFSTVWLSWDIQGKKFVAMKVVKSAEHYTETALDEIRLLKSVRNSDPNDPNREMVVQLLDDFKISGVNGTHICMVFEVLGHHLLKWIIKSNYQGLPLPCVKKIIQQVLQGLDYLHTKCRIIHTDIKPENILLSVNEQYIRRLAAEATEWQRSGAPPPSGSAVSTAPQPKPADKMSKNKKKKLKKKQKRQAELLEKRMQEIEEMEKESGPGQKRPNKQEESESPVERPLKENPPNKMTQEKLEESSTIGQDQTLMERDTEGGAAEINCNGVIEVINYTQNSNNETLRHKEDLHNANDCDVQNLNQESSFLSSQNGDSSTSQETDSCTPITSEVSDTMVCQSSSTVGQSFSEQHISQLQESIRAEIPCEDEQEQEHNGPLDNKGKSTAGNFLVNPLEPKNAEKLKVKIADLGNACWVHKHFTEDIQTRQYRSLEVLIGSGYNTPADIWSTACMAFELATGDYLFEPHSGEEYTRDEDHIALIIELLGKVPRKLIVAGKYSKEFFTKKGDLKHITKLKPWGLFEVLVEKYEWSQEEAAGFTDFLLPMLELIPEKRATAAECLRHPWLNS

[2] = test system: VEGF165 mRNA isoforms in primary RPE cells; experiment: RT-PCR for VEGF165 / VEGF165b mRNA in primary RPE cells; format: cell-based, human
Protocol: ID NO: 5)). […] Cells were treated with […]6 and 7 and the PCR repeated.

[3] = test system: SRSF1 expression in ARPE-19 cells; experiment: SRSF1 expression relative to tubulin in ARPE-19 cells; format: cell-based, human; settings: 72 hours up to six days
Protocol: Protein samples (30-50 μg) were mixed with 1× sodium-dodecyl sulphate (SDS) loading buffer (100 mM Tris-HCl, 4% SDS, 20% glycerol, 0.2% (w/v) bromophenol blue, and 5% final concentration 2-mercaptoethanol, pH6.8). To denature the protein, samples were boiled for five minutes at 100° C.
Samples were subjected to polyacrylamide gel electrophoresis (PAGE) on a 12% SDS-PAGE gel at 90V in ice cold running buffer (25 mM Tris-HCl, 250 mM glycine, 0.1% SDS, pH8.3) for approximately 2.5 hours. The separated proteins were then electrophoretically blotted to a methanol-activated polyvinylidene fluoride (PVDF) membrane (Fisher Scientific) by wet transfer for two hours at 90V in transfer buffer (50 mM Tris-HCl, 38 mM glycine, 20% methanol, pH8.3). […] The washes were repeated and the bands were detected using the Enhanced Chemoluminiscence (ECL) SuperSignal West Femto Maximum Sensitivity Substrate kit (Pierce).
The SRPK inhibitors were tested in a series of in vitro assays to determine the effect of treatment on VEGF isoform expression. Initially the effect of compound treatment on SRPK1 and SRSF1 expression was determined.

[4] = test system: VEGF expression in retinal protein; experiment: Retinal protein VEGF expression by western blot, rat CNV model; format: in vivo
Protocol: (§1) Six to eight week-old C57/B6 mice (B&K Laboratories) and adult Norway-Brown rats (Harlan Laboratories) were anaesthetized with an intraperitoneal injection of a mixture of 50 mg/kg ketamine and 0.5 mg/kg medetomidine. The pupils were dilated with 2.5% phenylephrine hydrochloride and 1% tropicamide. Four photocoagulation lesions were delivered with a krypton red laser (Mice: 250 mW, 0.01 s, 75 μm, Rats: 200 mW, 0.01 s, 75 μm, IRIS Medical 810 nm Oculight Slx laser) between the retinal vessels in a peripapillary distribution at a distance of 1-2 disc-diameters in each eye. Only laser lesions with a subretinal bubble at the time of treatment were included in the study. […] Animals were culled on either day 4 or day 14 and eyes were either unfixed for retinal dissection and protein extraction, or fixed and enucleated and choroids stained for isolectin-B4 and examined.
Retinal protein from SRPIN340 and saline treated eyes 4 days after initial treatment was assessed for VEGF expression by western blot. […] The expression of VEGFxxxb isoforms was investigated using mouse monoclonal 561 antibody (R&D systems).

[5] = test system: VEGF165 mRNA in the retina; experiment: VEGF165 mRNA expression in retinae after topical treatment; format: in vivo; settings: mouse, day 14
laser-induced CNV [6] = experiment: Laser-induced mouse CNV model, intravitreal injection; format: in vivo; settings: for area of neovascular lesions, mouse laser-induced CNV model: discussion summary, route not stated
Protocol: (§2) Laser Lesion Induction Protocol
as §1

laser-induced CNV [7] = experiment: Laser-induced rat CNV model, intravitreal injection; format: in vivo; settings: intravitreal (SRPIN340 25 ng)
Protocol: as §2, §1
MVRL10 therefore appeared to be a relatively specific inhibitor of SRPK1. To determine whether SRPK1 inhibition could inhibit CNV in animal models we tested these compounds alongside each other in a laser-induced mouse CNV model. […]

in vivo = settings: CD-1, mouse, topical or ocular, 5 ug
laser-induced CNV [8] = experiment: Laser-induced mouse CNV model, topical eye drops; format: in vivo
Protocol: as §2, §1
We performed a dose response trial investigating SRPIN340 topical eye drops. SRPIN340 was dissolved in a previously described drug delivery vehicle (Doukas et al., 2008) and administered twice daily. Fourteen days following laser insult choroids were fixed and flatmounted for isolectin staining and retinae were extracted for RNA analysis.

[9] = Pharmacokinetics in the eye after topical application (mass spectrometry)
[10] = Pharmacokinetics in the eye after intravitreal injection (mass spectrometry); format: in vivo, mouse; settings: 20 ng intravitreal
[11] = test system: VEGF165b protein in RPE cells; experiment: Western blotting for VEGF165b in RPE cells; format: cell-based, human; settings: 100 nM, FIG. 9B
Protocol: Protein was extracted from RPE cells treated for 48 hours with SPHINXes and subjected to western blotting for VEGF165b using anti-VEGF165b antibody as previously described (Gammons et al Invest. Ophthahnol. Vis. Sci. 54(9) 6052-6062).

[12] = test system: SRSF1 phosphorylation in PC3 prostate cancer cells; experiment: Inhibition of SRSF1 phosphorylation induced by EGF activation; format: cell-based; settings: 10 μM, 1 hr, 10 nM EGF
Protocol: Inhibition of SRSF1 Phosphorylation Induced by EGF Activation. […] Cells were lysed, and subjected to immunoblotting using an antibody to phosphorylated SR proteins (MAB104) and an antibody to tubulin as a loading control. Intensity was measured for SRSF1 and SRSF5 bands using ImageJ Intensity. Phosphorylation is calculated as the increase in intensity of the band over untreated relative to that for EGF with vehicle.

[13] = 5 μM, 24 hours, primary RPE cells

SMILES: Cc1cc(-c2cc(OC(=O)c3ccccc3)ccc2Cl)cc2nnc(Nc3ccc(OCCN4CCCC4)cc3)nc12 [TG100801]
- CNV lesion area (CNV lesion area; twice daily topical 0.6%): not
- CNV lesion area (CNV lesion area; twice daily topical 1%): significantly reduced CNV lesion area

- inhibition of SRPK2 (SRPK2; words): no inhibition
- IC50 (SRPK1; FIG. 1B, read-out: IC50 SRPK1 kinase): > 10 µM
SMILES: O=C(Nc1cc(C(F)(F)F)ccc1N1CCOCC1)c1cccnc1 [MVRL09, N-[2-(morpholin-4-yl)-5-(trifluoromethyl)phenyl]pyridine-3-carboxamide]
- SRPK1 expression [1]: failed to affect SRPK1 expression
- VEGF expression relative to total protein (VEGF protein expression): significantly reduced total VEGF expression
- expression of VEGF165b mRNA [2, 13]: induced clear expression of VEGF165b
- expression of VEGF165 mRNA relative to GAPDH [2, 13]: reduced the expression VEGF65 at RNA level
- expression of SRSF1 relative to a tubulin control [3]: reduced expression of SRSF1

SMILES: O=C(Nc1cc(C(F)(F)F)ccc1N1CCCCC1)c1ccncc1 [SRPIN340, N-[2-(1-piperidinyl)-5-(trifluoromethyl)phenyl]isonicotinamide]
- ratio of pro to anti-VEGF isoforms in retinal protein ([4]; rat, 4 days after initial treatment): No difference in the ratio of pro to anti-VEGF isoforms
- VEGF expression in retinal protein ([4]; rat, 4 days after initial treatment, western blot): decrease in the expression of VEGF; also recorded: reduced CNV area and total VEGF protein expression
- expression of VEGFxxxb isoforms in rat retinae ([4]; vs saline controls): no change in the expression of VEGFxxxb isoforms
- IC50 (SRPK2): 7.4 µM
- VEGF165 mRNA expression in the retinae [5]: reduced; also recorded: near significant reduction in VEGF165
- area of neovascular lesions, mouse laser-induced CNV model (laser-induced CNV [6]): achieving significance
- EC50 on CNV area (laser-induced CNV [6]; mouse, intravitreal, total injected dose): 1.28 ng
- neovascular area vs control injected eyes (laser-induced CNV [6]; two intravitreal injections of 10 ng, mouse): significantly reduced neovascular area
- CNV area vs saline injected controls (laser-induced CNV [7]): significantly reduced the CNV area
- SRPK1 expression [1]: failed to affect SRPK1 expression
- VEGF expression relative to total protein (VEGF protein expression): significantly reduced total VEGF expression
- IC50 (SRPK1): 0.96 µM
- half-life (in vivo): 0.583 h
- CNV area, 0.01% solution (laser-induced CNV [8]; 0.01% solution in gel drug delivery vehicle, topical): significant inhibition of CNV area
- EC50 (laser-induced CNV [8]; Mus musculus, topical, read-out: EC50 on CNV, topical): 3.19 µg/mL (≈ 9.12 µM)
- CNV formation, eye drop (laser-induced CNV [8]; mouse, topical): significantly inhibited CNV formation; also recorded: significantly suppressed CNV
- EC50 on CNV lesion area, topical drops (laser-induced CNV [8]; mouse, twice daily eye drops, total dose): 640 ng
- detection in the eye ([9]; 48 hours after a single topical administration): still detectable
- systemic detection ([9]; after a single topical administration): not detected systemically
- fraction of total applied dose detected in the eye ([9]; single topical 5 μg, after 1 hour, whole eye): 3.5%
- fraction of applied dose detected in the posterior chamber ([9]; single topical 5 μg, after 12 hours): 0.15%
- expression of VEGF165 mRNA relative to GAPDH [2, 13]: reduced the expression VEGF65 at RNA level
- expression of SRSF1 relative to a tubulin control [3]: reduced expression of SRSF1
- concentration in the eye ([10]; over a 2 day period): > 10 ng/mL
- half-life ([10]; mouse, eye tissue, 1-48 hours curve fit, read-out: sustained half-life in the eye (converted)): 22 h

- IC50 (laser-induced CNV [8]; mouse, topical, FIG. 11, read-out: IC50 for inhibition of CNV as an eye drop): 0.225 µg/mL (≈ 0.462 µM)
SMILES: CN(C)CCN1CCN(c2ccc(C(F)(F)F)cc2NC(=O)c2ccc(-c3ccncc3)o2)CC1 [SPHINX7]
- area of neovascular lesions, mouse laser-induced CNV model (laser-induced CNV [6]): achieving significance
- VEGF165b at protein level [11]: increase VEGF165b
- SRSF1 phosphorylation induced by EGF [12]: inhibit SRSF1 phosphorylation
- CNV formation, eye drop (laser-induced CNV [8]; mouse, topical): significantly inhibited CNV formation
- amount of VEGF165 at RNA level ([2]; 100 nM, FIG. 9A): reduce the amount of VEGF165
